Active and inactive are the calls of the source. Rule as the data show it: actives have a measured IC50 and inactives only a lower limit.

For the assay, the target named is Envelope glycoprotein gp160 (Human immunodeficiency virus 1, UniProt Q6QLK5). The experiment in a line: inhibitors of HIV fusion peptide binding, primary screen, biochemical, uHTS, fluorescence dequenching (AID 1986).
Envelope glycoprotein gp160, sequence (Q6QLK5 whole entry, the tested form may be a part): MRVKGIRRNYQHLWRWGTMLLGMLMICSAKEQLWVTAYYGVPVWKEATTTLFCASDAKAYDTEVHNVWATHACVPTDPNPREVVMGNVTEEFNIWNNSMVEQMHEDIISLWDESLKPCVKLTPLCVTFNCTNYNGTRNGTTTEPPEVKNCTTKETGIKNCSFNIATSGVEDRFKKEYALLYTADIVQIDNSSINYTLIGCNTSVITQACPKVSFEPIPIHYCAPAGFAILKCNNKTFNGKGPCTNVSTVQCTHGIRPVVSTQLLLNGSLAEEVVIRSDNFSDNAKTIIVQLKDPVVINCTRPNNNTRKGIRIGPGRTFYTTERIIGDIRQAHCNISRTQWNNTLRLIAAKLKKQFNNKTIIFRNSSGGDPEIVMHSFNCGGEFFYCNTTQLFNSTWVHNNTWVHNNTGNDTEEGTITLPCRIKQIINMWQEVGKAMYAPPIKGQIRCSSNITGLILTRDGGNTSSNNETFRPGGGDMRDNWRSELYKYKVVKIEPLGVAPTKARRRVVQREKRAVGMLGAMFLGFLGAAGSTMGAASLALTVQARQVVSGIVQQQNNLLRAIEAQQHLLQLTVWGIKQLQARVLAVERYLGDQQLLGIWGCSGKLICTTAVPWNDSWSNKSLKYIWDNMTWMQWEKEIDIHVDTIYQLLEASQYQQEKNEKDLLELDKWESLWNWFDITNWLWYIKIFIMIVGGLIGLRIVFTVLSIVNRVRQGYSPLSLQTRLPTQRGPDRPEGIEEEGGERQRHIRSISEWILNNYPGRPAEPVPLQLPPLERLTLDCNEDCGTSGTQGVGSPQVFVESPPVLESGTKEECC
Regarding `O=C(O)c1cccc(N/N=C/c2cc(Br)cc(Br)c2O)c1`, the 50% inhibitory concentration (IC50) (in general, the point on the concentration scale where inhibition reaches its midpoint) is 17.1 µM (active). The result for `C=CC#CC[N+]1(CC#Cc2ccccc2)CCOCC1` reads 22.5 µM (active). The result for `Cc1ccc(-c2nc(SCC(=O)Nc3ccccc3OC(F)F)c3c(C)c(C(=O)O)sc3n2)cc1` reads 15.1 µM (active).

Source of the values: ChEMBL document CHEMBL1201862, “PubChem BioAssay data set” (2004).
